The text below walks through data of patent US20250011311A1, “AMIDO HETEROAROMATIC COMPOUNDS” (AstraZeneca AB, priority 2022, published 2025).

One data set has as its system human hepatocytes. Kind of data set: Assay A: Metabolic Stability in Human Hepatocytes. The note with it: cryopreserved human hepatocytes, 10^6 viable cells/mL, 1 μM compound, 37° C. In kind it is in vitro ADME. A digest of the protocol: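 Cryopreserved hepatocytes (10^6 viable cells/mL) at 37° C with 1 μM test compound, sampled 0.5–120 min and quenched in MeCN. Parent measured by LC-MS/MS; CLint (μL/min/10^6 cells) from the slope of ln(parent concentration) vs time.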

For data set [1], the target named is over expressed HSD17β13 in HEK293S cells (Homo sapiens (Human), UniProt Q7Z5P4). Put plainly: In Vitro 17bHSD13 Cell Assay. The class given is cell-based. To be noted: HEK293S cells over expressing HSD17β13; estradiol to estrone conversion, 18 h, LC-MS/MS; read-out: 17bHSD1713 Cell assay IC50. A digest of the protocol:
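HEK293S cells overexpressing HSD17β13 convert estradiol to estrone; product read by LC-MS/MS (APCI, positive MRM) as AUC ratio estrone/(estrone+estradiol). Effect normalised between DMSO and maximal inhibition by a known inhibitor control; IC50 from curve fit.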

Data set [2] has as its target over expressed HSD17β9 in HEK293S cells (Homo sapiens (Human), UniProt Q92781). Kind of data set: In Vitro 17bHSD9 Cell Assay. In kind it is cell-based. To be noted: HEK293S cells over expressing HSD17β9; retinol to retinal conversion, 18 h, LC-MS/MS; read-out: 17bHSD9 Cell assay IC50. A digest of the protocol:
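HEK293S cells overexpressing HSD17β9 were plated at 10K cells/well in DMEM + 10% FBS and cultured 18 h. Retinol-to-retinal conversion in media was quantified by LC-MS/MS (MRM) as retinal/(retinal + retinol). IC50 was fitted after normalisation to DMSO and full inhibition by a reference inhibitor.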

The target of a further data set is CYP2C9 (Homo sapiens (Human), UniProt P11712). Kind of data set: Assay B: Cytochrome P450 Inhibition 2C9.
Chain of CYP2C9 (P11712 whole entry): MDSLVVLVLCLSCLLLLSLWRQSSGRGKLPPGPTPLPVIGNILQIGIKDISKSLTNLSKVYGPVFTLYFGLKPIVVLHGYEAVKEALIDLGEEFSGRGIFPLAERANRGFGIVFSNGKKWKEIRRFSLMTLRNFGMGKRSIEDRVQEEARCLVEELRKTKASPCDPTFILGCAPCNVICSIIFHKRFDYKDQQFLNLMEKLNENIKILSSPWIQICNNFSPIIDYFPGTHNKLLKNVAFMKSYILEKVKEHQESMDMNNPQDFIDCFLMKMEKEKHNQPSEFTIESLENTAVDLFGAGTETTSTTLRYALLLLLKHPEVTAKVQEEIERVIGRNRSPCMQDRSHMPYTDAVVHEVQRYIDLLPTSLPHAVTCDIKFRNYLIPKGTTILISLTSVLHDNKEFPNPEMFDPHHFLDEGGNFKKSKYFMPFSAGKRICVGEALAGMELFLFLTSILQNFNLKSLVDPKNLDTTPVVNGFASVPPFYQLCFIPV

Chain of over expressed HSD17β9 in HEK293S cells (Q92781 whole entry): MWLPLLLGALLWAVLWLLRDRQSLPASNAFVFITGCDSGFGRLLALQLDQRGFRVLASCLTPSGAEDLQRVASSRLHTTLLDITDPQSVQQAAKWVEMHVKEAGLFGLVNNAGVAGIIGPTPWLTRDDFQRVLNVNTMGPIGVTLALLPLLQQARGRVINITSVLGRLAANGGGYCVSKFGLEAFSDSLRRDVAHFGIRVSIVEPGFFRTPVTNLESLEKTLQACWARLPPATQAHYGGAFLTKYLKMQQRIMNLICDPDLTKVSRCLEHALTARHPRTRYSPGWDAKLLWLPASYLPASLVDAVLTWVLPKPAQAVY
Chain of over expressed HSD17β13 in HEK293S cells (Q7Z5P4 20-300): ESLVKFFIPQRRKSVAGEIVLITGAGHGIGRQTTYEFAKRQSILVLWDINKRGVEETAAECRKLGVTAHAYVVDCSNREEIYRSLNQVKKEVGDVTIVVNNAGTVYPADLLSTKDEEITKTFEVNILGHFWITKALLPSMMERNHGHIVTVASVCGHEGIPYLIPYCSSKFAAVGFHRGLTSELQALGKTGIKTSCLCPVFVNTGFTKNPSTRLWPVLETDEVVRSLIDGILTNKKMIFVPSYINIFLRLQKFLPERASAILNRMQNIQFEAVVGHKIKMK

Consider `CCCC1CCN(C(=O)c2noc(-c3cc(F)c(F)c(O)c3F)n2)C1` (stereo not drawn) [Example 76, (3-Propylpyrrolidin-1-yl)(5-(2,4,5-trifluoro-3-hydroxyphenyl)-1,2,4-oxadiazol-3-yl)methanone], for which, in the data set on human hepatocytes, the “Assay A: Human Heps Met Clint GMean CLint (μl/min/1E6)” value is reported as 18.2 μl/min/1E6. The IC50 in data set [1] is 140 nM; in data set [2], 19.6 µM; against CYP2C9, 2.6 µM.
`CC1(C)CN(C(=O)c2noc(-c3cc(F)c(F)c(O)c3F)n2)CC(C)(C)O1` [Example 32, (2,2,6,6-Tetramethylmorpholino)(5-(2,4,5-trifluoro-3-hydroxyphenyl)-1,2,4-oxadiazol-3-yl)methanone]: the “Assay A: Human Heps Met Clint GMean CLint (μl/min/1E6)” value with human hepatocytes turned out to be 4.1 μl/min/1E6. The results for the half-maximal inhibitory concentration (IC50) (in data set [1]; in data set [2]; against CYP2C9) were 300 nM, 15.8 µM and 8.3 µM, respectively.
As to `CC[C@H]1CN(C(=O)c2noc(-c3cc(F)c(F)c(O)c3F)n2)C[C@@H](C)O1` (racemic) [Example 121, rac-((2R,6S)-2-Ethyl-6-methylmorpholino)(5-(2,4,5-trifluoro-3-hydroxyphenyl)-1,2,4-oxadiazol-3-yl)methanone], the “Assay A: Human Heps Met Clint GMean CLint (μl/min/1E6)” value in the data set with human hepatocytes was determined as 6.8 μl/min/1E6. Moreover, the IC50 is 20 nM in data set [1], 16.4 µM in data set [2] and 7.7 µM against CYP2C9.
Taken in the same sequence, the figures for `C[C@@H]1CC[C@H](C)N1C(=O)c1noc(-c2cc(F)c(F)c(O)c2F)n1` [Example 38, ((2R,5S)-2,5-Dimethylpyrrolidin-1-yl)(5-(2,4,5-trifluoro-3-hydroxyphenyl)-1,2,4-oxadiazol-3-yl)methanone] were 2.1 μl/min/1E6, 270 nM, 8.7 µM and 14.8 µM.
Taken in the same sequence, the figures for `CC1CN(C(=O)c2noc(-c3cc(F)c(F)c(O)c3F)n2)CC(C)(C)O1` (stereo not drawn) [Example 117, (5-(2,4,5-Trifluoro-3-hydroxyphenyl)-1,2,4-oxadiazol-3-yl)(2,2,6-trimethylmorpholino)methanone] were 4.2 μl/min/1E6, 90 nM, greater than 50 µM and 4.9 µM.
Taken in the same sequence, the figures for `C[C@@H]1CN(C(=O)c2cnc(-c3cc(F)c(F)c(O)c3F)s2)C[C@H](C)O1` [Example 120, ((2R,6S)-2,6-Dimethylmorpholino)(2-(2,4,5-trifluoro-3-hydroxyphenyl)thiazol-5-yl)methanone] were 13.3 μl/min/1E6, 140 nM, greater than 50 µM and 12.8 µM.
On to `CC1CN(C(=O)c2noc(-c3cc(F)c(F)c(O)c3F)n2)CC2(CCC2)O1` (racemic) [Example 123, (6-Methyl-5-oxa-8-azaspiro[3.5]nonan-8-yl)(5-(2,4,5-trifluoro-3-hydroxyphenyl)-1,2,4-oxadiazol-3-yl)methanone], for which the “Assay A: Human Heps Met Clint GMean CLint (μl/min/1E6)” value in the data set with human hepatocytes was found to be 8.3 μl/min/1E6. Also, the IC50 in data set [1] was determined as 80 nM; in data set [2], 30 µM; against CYP2C9, 9.3 µM.
Taken in the same sequence, the figures for `CC(C)CC1CN(C(=O)c2noc(-c3cc(F)c(F)c(O)c3F)n2)CCO1` (stereo not drawn) [Example 47, (2-Isobutylmorpholino)(5-(2,4,5-trifluoro-3-hydroxyphenyl)-1,2,4-oxadiazol-3-yl)methanone] were 17.4 μl/min/1E6, 230 nM, 2.1 µM and 1 µM.
Taken in the same sequence, the figures for `Cn1nnc(-c2cnc(N3CCN(C(=O)c4noc(-c5cc(F)c(F)c(O)c5F)n4)CC3)c(Cl)c2)n1` [Example 67, (4-(3-Chloro-5-(2-methyl-2H-tetrazol-5-yl)pyridin-2-yl)piperazin-1-yl)(5-(2,4,5-trifluoro-3-hydroxyphenyl)-1,2,4-oxadiazol-3-yl)methanone] were 6.6 μl/min/1E6, 530 nM, greater than 50 µM and 3 µM.

Broadly, the IC50 is the midpoint of a concentration-inhibition curve.
